According to the NIST ThermoML archive (doi:10.1021/je100967k):

Columns and labels:
[1] = xn = mol fraction of the nth substance listed; conditions: 101 kPa, Liquid; for speed of sound: Pulse-echo method
[2] = refractive index (Na D-line) (dimensionless); xn = mol fraction of the nth substance listed; conditions: 101 kPa, Liquid, Standard Abbe refractometry

NCCO [2-aminoethan-1-ol] + CN1CCCC1=O
Conditions | mass density, [1] [kg/m3] | refractive index, [2] | speed of sound, [1] [m/s] | viscosity, [1] [mPa·s]
293.15 K, x2 = 0 | 1016.65 | 1.4525 | 1735.9 | 24.61
293.15 K, x2 = 0.1 | 1017.8 | 1.4546 | 1701.7 | 17.43
293.15 K, x2 = 0.209 | 1019.27 | 1.4567 | 1673.2 | 11.99
293.15 K, x2 = 0.3 | 1020.59 | 1.4587 | 1649.8 | 8.496
293.15 K, x2 = 0.4 | 1022.06 | 1.4604 | 1630.1 | 6.211
293.15 K, x2 = 0.5 | 1023.46 | 1.462 | 1613.2 | 4.761
293.15 K, x2 = 0.596 | 1024.91 | 1.4634 | 1599.1 | 3.622
293.15 K, x2 = 0.7 | 1026.57 | 1.4648 | 1587.7 | 2.883
293.15 K, x2 = 0.8 | 1028.4 | 1.4663 | 1578.6 | 2.401
293.15 K, x2 = 0.907 | 1030.5 | 1.4677 | 1571.4 | 2.089
303.15 K, x2 = 0 | 1008.74 | 1.4488 | 1703.7 | 14.96
303.15 K, x2 = 0.1 | 1009.8 | 1.4507 | 1668.1 | 10.93
303.15 K, x2 = 0.209 | 1011 | 1.4527 | 1638.4 | 7.985
303.15 K, x2 = 0.3 | 1012.1 | 1.4546 | 1613.8 | 5.834
303.15 K, x2 = 0.4 | 1013.5 | 1.4563 | 1593.6 | 4.433
303.15 K, x2 = 0.5 | 1014.9 | 1.4578 | 1576 | 3.752
303.15 K, x2 = 0.596 | 1016.3 | 1.4592 | 1561.2 | 2.822
303.15 K, x2 = 0.7 | 1018 | 1.4605 | 1549.8 | 2.296
303.15 K, x2 = 0.8 | 1019.7 | 1.4619 | 1540.5 | 1.95
303.15 K, x2 = 0.907 | 1021.72 | 1.4632 | 1532.7 | 1.725
313.15 K, x2 = 0 | 1000.77 | 1.4449 | 1671.2 | 9.839
313.15 K, x2 = 0.1 | 1001.6 | 1.4467 | 1634.1 | 7.429
313.15 K, x2 = 0.209 | 1002.38 | 1.4486 | 1603.1 | 5.559
313.15 K, x2 = 0.3 | 1003.2 | 1.4505 | 1578.6 | 4.278
313.15 K, x2 = 0.4 | 1004.2 | 1.452 | 1557.3 | 3.358
313.15 K, x2 = 0.5 | 1005.5 | 1.4534 | 1538.9 | 2.697
313.15 K, x2 = 0.596 | 1006.9 | 1.4548 | 1523.9 | 2.245
313.15 K, x2 = 0.7 | 1008.69 | 1.4561 | 1512.1 | 1.866
313.15 K, x2 = 0.8 | 1010.68 | 1.4575 | 1502.6 | 1.62
313.15 K, x2 = 0.907 | 1012.79 | 1.4588 | 1494.4 | 1.462
323.15 K, x2 = 0 | 992.75 | 1.4417 | 1638.8 | 6.902
323.15 K, x2 = 0.1 | 993.31 | 1.4434 | 1600.2 | 5.386
323.15 K, x2 = 0.209 | 994 | 1.4451 | 1568.9 | 4.159
323.15 K, x2 = 0.3 | 994.64 | 1.4466 | 1544.4 | 3.289
323.15 K, x2 = 0.4 | 995.6 | 1.4479 | 1521.5 | 2.625
323.15 K, x2 = 0.5 | 996.7 | 1.4493 | 1502 | 2.173
323.15 K, x2 = 0.596 | 998.14 | 1.4506 | 1486.7 | 1.883
323.15 K, x2 = 0.7 | 999.74 | 1.4519 | 1474.5 | 1.574
323.15 K, x2 = 0.8 | 1001.73 | 1.4533 | 1464.8 | 1.356
323.15 K, x2 = 0.907 | 1003.86 | 1.4545 | 1456.8 | 1.24

CN1CCCC1=O [N-methylpyrrolidone] + CCO
Conditions | mass density, [1] [kg/m3] | refractive index, [2] | speed of sound, [1] [m/s] | viscosity, [1] [mPa·s]
293.15 K, x1 = 0.0992 | 829.76 | 1.3797 | 1226.1 | 1.139
293.15 K, x1 = 0.1985 | 864.84 | 1.3953 | 1284.2 | 1.173
293.15 K, x1 = 0.2973 | 894.36 | 1.4089 | 1331.7 | 1.218
293.15 K, x1 = 0.3963 | 920.89 | 1.4209 | 1375.7 | 1.275
293.15 K, x1 = 0.4948 | 944.41 | 1.4313 | 1414.8 | 1.354
293.15 K, x1 = 0.5932 | 965 | 1.4406 | 1448.9 | 1.436
293.15 K, x1 = 0.6912 | 983.96 | 1.449 | 1480.7 | 1.524
293.15 K, x1 = 0.7897 | 1000.86 | 1.4563 | 1509.4 | 1.626
293.15 K, x1 = 0.8875 | 1016.79 | 1.4633 | 1537 | 1.726
293.15 K, x1 = 1 | 1032.87 | 1.4706 | 1565.3 | 1.858
303.15 K, x1 = 0.0992 | 820.98 | 1.376 | 1191.3 | 0.9625
303.15 K, x1 = 0.1985 | 855.96 | 1.3916 | 1248.9 | 0.986
303.15 K, x1 = 0.2973 | 885.42 | 1.4051 | 1295.9 | 1.033
303.15 K, x1 = 0.3963 | 911.91 | 1.4168 | 1338.9 | 1.09
303.15 K, x1 = 0.4948 | 935.43 | 1.4273 | 1377.6 | 1.15
303.15 K, x1 = 0.5932 | 955.97 | 1.4366 | 1411.4 | 1.22
303.15 K, x1 = 0.6912 | 974.94 | 1.4449 | 1442.9 | 1.292
303.15 K, x1 = 0.7897 | 991.85 | 1.4523 | 1471.4 | 1.371
303.15 K, x1 = 0.8875 | 1007.8 | 1.4593 | 1498.5 | 1.45
303.15 K, x1 = 1 | 1023.95 | 1.4664 | 1526.5 | 1.553
313.15 K, x1 = 0.0992 | 812.09 | 1.3717 | 1157 | 0.803
313.15 K, x1 = 0.1985 | 846.98 | 1.3872 | 1214.7 | 0.8276
313.15 K, x1 = 0.2973 | 876.39 | 1.4011 | 1260.3 | 0.867
313.15 K, x1 = 0.3963 | 902.87 | 1.4127 | 1302.5 | 0.9234
313.15 K, x1 = 0.4948 | 926.39 | 1.4234 | 1341 | 0.98
313.15 K, x1 = 0.5932 | 946.9 | 1.4329 | 1374.2 | 1.039
313.15 K, x1 = 0.6912 | 965.89 | 1.4411 | 1405.3 | 1.109
313.15 K, x1 = 0.7897 | 982.82 | 1.4484 | 1433.5 | 1.173
313.15 K, x1 = 0.8875 | 998.8 | 1.4552 | 1460.3 | 1.237
313.15 K, x1 = 1 | 1015.03 | 1.4621 | 1487.8 | 1.324
323.15 K, x1 = 0.0992 | 803.05 | 1.3677 | 1122.7 | 0.657
323.15 K, x1 = 0.1985 | 837.87 | 1.3837 | 1179.6 | 0.691
323.15 K, x1 = 0.2973 | 867.27 | 1.3974 | 1224.9 | 0.731
323.15 K, x1 = 0.3963 | 893.76 | 1.4089 | 1266.6 | 0.782
323.15 K, x1 = 0.4948 | 917.3 | 1.4195 | 1304.6 | 0.833
323.15 K, x1 = 0.5932 | 937.79 | 1.4289 | 1337.3 | 0.895
323.15 K, x1 = 0.6912 | 956.8 | 1.4372 | 1368.3 | 0.952
323.15 K, x1 = 0.7897 | 973.77 | 1.4443 | 1396.1 | 1.011
323.15 K, x1 = 0.8875 | 989.78 | 1.4512 | 1422.8 | 1.071
323.15 K, x1 = 1 | 1006.1 | 1.4576 | 1450.2 | 1.146
